Measurements from patent publication US20210236445A1, “BACLOFEN AND ACAMPROSATE BASED THERAPY OF ALZHEIMER'S DISEASE IN PATIENTS HAVING LOST RESPONSIVENESS TO ACETYLCHOLINESTERASE INHIBITOR THERAPY” (priority 2018, published 2021).

Key:
[1] = system: patient's cognitive function; conditions: cited from earlier work
[2] = system: Aβ25-35-induced step-through passive avoidance deficits in mice; assay: Step-through passive avoidance test (STPA) in Aβ25-35 ICV-injected mice; assay type: in vivo, Swiss mice
Procedure: (§1) Male Swiss mice were anesthetized 5 minutes with isoflurane 2.5%. At Day 01, animals were injected intracerebroventricularly (ICV) through a 28-gauge stainless-steel needle, 4 mm long. An injection volume of 3 μl was delivered gradually within 30 s and the needle left in place for an additional 30 s before being removed. […] Homogeneous preparation of the Aβ25-35 peptide were performed according to the AMYLGEN's own procedure.
(§2) All animals received a per os gavage using an inox steel cannula (5 mL/Kg). All the treatments were administered under a volume calculated according to the individual body weight of each mouse (5 mL/Kg). Vehicle and donepezil (1 mg/Kg) administration were done once a day, and the mix Acamprosate/baclofen twice a day (0.2 mg/Kg and 3 mg/Kg, respectively).
(§3) In a first set of experiments (FIG. 1A), the treatment, donepezil (1 mg/Kg), was started 19 days (D20) after icy injection for 21 days (D40) (group 3 and 4). At D30 one group of animals treated with donepezil was administered with acamprosate and baclofen (0.2 mg/Kg and 3 mg/Kg, respectively), in addition of donepezil treatment (group 4).
(§4) In a second set of experiments (FIG. 1B). The treatment, donepezil (1 mg/kg) (Group 5) or the combination acamprosate and baclofen (0.2 mg/Kg and 3 mg/Kg, respectively) (group 7), was started 19 days (D20) after icy injection and maintained for 23 days (D42) in two groups of animals. In a third group of animals (group 6), initially treated with donepezil, treatment with donepezil was stopped at D30 and replaced with administration of acamprosate and baclofen (0.2 mg/Kg and 3 mg/Kg, respectively) until D42.
The guillotine door was initially closed during the training session. Each mouse was placed into the white compartment. After 5 s, the door was raised. […] The retention test was carried out 24 h after training. Each mouse was placed again into the white compartment. After 5 s, the door was raised.
(§5) All animals received a per os gavage using an inox steel cannula. Vehicle or Donepezil (1 mg/kg) were administered at D8 until D17; or at D20 until D30 or at D20 to D40 once a day. All the treatments were administered under a volume calculated according to the individual body weight of each mouse (5 mL/Kg).

[3] = system: Aβ25-35-induced spontaneous alternation deficits in mice; assay: Spontaneous alternation performance (Y-maze) in Aβ25-35 ICV-injected mice; assay type: in vivo, Swiss mice; conditions: Example C
[4] = system: Aβ25-35-induced spontaneous alternation deficits in mice; assay: as above; assay type: in vivo, Swiss mice; conditions: for Effect on Aβ25-35-induced cognitive impairment, spontaneous alternation (Y-maze), after longer treatment / Effect on Aβ25-35-induced cognitive impairment, spontaneous alternation (Y-maze): Example A; for Effect on Aβ25-35-induced cognitive impairment, spontaneous alternation (Y-maze), after longer treatment: treatment alone from D20, tested D38 or D40; for Effect on Aβ25-35-induced cognitive impairment, spontaneous alternation (Y-maze): treatment alone per os from D20, eleven days, tested D30, donepezil 1 mg/Kg once a day or acamprosate/baclofen 0.2/3 mg/Kg twice a day
Procedure: as §1, §2, §3, §4
(§6) Mice were tested for spontaneous alternation performance in the Y-maze, an index of spatial working memory. The Y-maze was designed according to Itoh et al.,1993 (57) and Hiramatsu and Inoue, 1999 (58), and is made of grey polyvinylchloride. Each arm is 40 cm long, 13 cm high, 3 cm wide at the bottom, 10 cm wide at the top, and converging at an equal angle. Each mouse was placed at the end of one arm and allowed to move freely through the maze during an 8 min session. The series of arm entries, including possible returns into the same arm, were checked visually by an experimenter blind to treatment. An alternation is defined as entries into all three arms on consecutive occasions. The number of maximum alternations were therefore the total number of arm entries minus two and the percentage of alternation as calculated as (actual alternations / maximum alternations)×100. Calculated parameters consisted in the percentage of alternation (memory index) and the total number of arm entries (exploration index) (52-56).
In the first set of experiments (FIG. 1A), animals were tested after the beginning of the treatment at D30 and D38. In the second set of experiments (FIG. 1B), animals were tested after the beginning of the treatment, at D30 and D40.
as §5
as §6, with “8min” for “8 min”, “occasions.” for “occasions. The number of maximum alternations were therefore the total number of arm entries minus two and the percentage of alternation as calculated as (actual alternations / maximum alternations)×100. Calculated parameters consisted in the percentage of alternation (memory index) and the total number of arm entries (exploration index) (52-56).”

Row | Compound | Efficacy over time in Alzheimer's patients ([1]; compared with donepezil studies) | Effect on long-term memory, passive avoidance (step-through latency and escape latency) ([2]; Example A, treatment alone D20 to D40 or D42, tested D39-40 or D41-42) | Recovery of Aβ25-35-induced cognitive impairment assessed by passive avoidance test ([2]; Example B, 1 mg/Kg started at D08 (to D17), tested D16-17) | Activity in passive avoidance test ([2]; Example B, 1 mg/kg administered D20 to D30, tested D29-30) | Fear conditioning memory assessed by STPA at D99/D100 ([2]; Example C, end of experiment, treatment until D100) | % of alternation in Y-maze at D42 ([3]; 1 mg/Kg from D7, at D42) [%] | Difference of Y-maze effect from Sc.Aβ-vehicle animals ([3]; 1 mg/Kg from D7, between D21 and D28) | Y-maze activity after D48 until D100 ([3]; donepezil 1 mg/Kg only, D7 to D100) | Effect on Aβ25-35-induced cognitive impairment, spontaneous alternation (Y-maze), after longer treatment [4] | Effect on Aβ25-35-induced cognitive impairment, spontaneous alternation (Y-maze), after longer treatment ([4]; listed as DNPz) | Effect on Aβ25-35-induced cognitive impairment, spontaneous alternation (Y-maze) [4] | Effect on Aβ25-35-induced cognitive impairment, spontaneous alternation (Y-maze) ([4]; listed as DNPz) | Percentage drug effect in Y-maze at D30 ([4]; Example B, 1 mg/Kg D20 until D40, tested at D30) [%] | Percentage drug effect in Y-maze at D38 ([4]; Example B, 1 mg/Kg D20 until D40, tested at D38, not statistically significant) [%] | Recovery of Aβ25-35-induced cognitive impairment assessed by Y-maze ([4]; Example B, 1 mg/Kg per os once a day started at D08 (to D17), tested D15) | Activity in Y-maze, % of optimal activity ([4]; Example B, 1 mg/kg administered D20 to D30, tested D28) [%] | Time after initiation of treatment at which cognitive function reaches its baseline level ([1]; Alzheimer's patients) [weeks] | Period during which treatment improved the patient's cognitive function ([1]; Alzheimer's patients, from initiation of treatment) [weeks]
1 | CCN(C)C(=O)Oc1cccc([C@H](C)N(C)C)c1 [rivastigmine] | limited efficacy | – | – | – | – | – | – | – | – | – | – | – | – | – | – | – | – | –
2 | COc1cc2c(cc1OC)C(=O)C(CC1CCN(Cc3ccccc3)CC1)C2 (stereo not drawn) [donepezil] | – | partially restored long-term memory | fully recover | partially active | altered | 47 | not significantly different | inactivity was sustained | totally lost | not sustained | partially alleviated | partial activity | 43 | 25 | fully recover | 44 | 30 | 12
